In US9828378B2, “Kinase inhibitors and methods of use” (Intellikine LLC, priority 2008, dated 2017):
Like-named read-outs stand apart in the source and are kept apart here.

Tests used:
mTORC = mTORC (Homo sapiens (Human), UniProt P42345); experiment: mTOR kinase inhibition assay; assay type: biochemical; settings: Table 1; read-out: mTORC IC50
Protocol: The compounds described herein can be tested against recombinant mTOR (Invitrogen) in an assay containing 50 mM HEPES, pH 7.5, 1 mM EGTA, 10 mM MgCl2, 2.5 mM, 0.01% Tween, 10 μM ATP (2.5 μCi of p-32P-ATP), and 3 μg/mL BSA. Rat recombinant PHAS-1/4EBP1 (Calbiochem; 2 mg/mL) is used as a substrate. Reactions are terminated by spotting onto nitrocellulose, which is washed with 1M NaCl/1% phosphoric acid (approximately 6 times, 5-10 minutes each). Sheets are dried and the transferred radioactivity quantitated by phosphorimaging.
For instance, one can use Invitrogen's LanthaScreen™ Kinase assay to test the inhibitors of mTOR disclosed herein. This assay is a time resolved FRET platform that measures the phosphorylation of GFP labeled 4EBP1 by mTOR kinase. The kinase reaction is performed in a white 384 well microtitre plate. The total reaction volume is 20 ul per well and the reaction buffer composition is 50 mM HEPES pH7.5, 0.01% Polysorbate 20, 1 mM EGTA, 10 mM MnCl2, and 2 mM DTT. In the first step, each well receives 2 ul of test compound in 20% dimethylsulphoxide resulting in a 2% DMSO final concentration. Next, 8 ul of mTOR diluted in reaction buffer is added per well for a 60 ng/ml final concentration. To start the reaction, 10 ul of an ATP/GFP-4EBP1 mixture (diluted in reaction buffer) is added per well for a final concentration of 10 uM ATP and 0.5 uM GFP-4EBP1. The plate is sealed and incubated for 1 hour at room temperature. […] The plate is sealed, incubated for 1 hour at room temperature, and then read on a plate reader set up for LanthaScreen™ TR-FRET. Data is analyzed and IC50s are generated using GraphPad Prism 5.

PI3K α = PI3K α (Homo sapiens (Human), UniProt P42336); experiment: PI3K α inhibition assay; assay type: biochemical; settings: Table 1; read-out: PI3K α IC50
Chain of PI3K α (P42336 whole entry): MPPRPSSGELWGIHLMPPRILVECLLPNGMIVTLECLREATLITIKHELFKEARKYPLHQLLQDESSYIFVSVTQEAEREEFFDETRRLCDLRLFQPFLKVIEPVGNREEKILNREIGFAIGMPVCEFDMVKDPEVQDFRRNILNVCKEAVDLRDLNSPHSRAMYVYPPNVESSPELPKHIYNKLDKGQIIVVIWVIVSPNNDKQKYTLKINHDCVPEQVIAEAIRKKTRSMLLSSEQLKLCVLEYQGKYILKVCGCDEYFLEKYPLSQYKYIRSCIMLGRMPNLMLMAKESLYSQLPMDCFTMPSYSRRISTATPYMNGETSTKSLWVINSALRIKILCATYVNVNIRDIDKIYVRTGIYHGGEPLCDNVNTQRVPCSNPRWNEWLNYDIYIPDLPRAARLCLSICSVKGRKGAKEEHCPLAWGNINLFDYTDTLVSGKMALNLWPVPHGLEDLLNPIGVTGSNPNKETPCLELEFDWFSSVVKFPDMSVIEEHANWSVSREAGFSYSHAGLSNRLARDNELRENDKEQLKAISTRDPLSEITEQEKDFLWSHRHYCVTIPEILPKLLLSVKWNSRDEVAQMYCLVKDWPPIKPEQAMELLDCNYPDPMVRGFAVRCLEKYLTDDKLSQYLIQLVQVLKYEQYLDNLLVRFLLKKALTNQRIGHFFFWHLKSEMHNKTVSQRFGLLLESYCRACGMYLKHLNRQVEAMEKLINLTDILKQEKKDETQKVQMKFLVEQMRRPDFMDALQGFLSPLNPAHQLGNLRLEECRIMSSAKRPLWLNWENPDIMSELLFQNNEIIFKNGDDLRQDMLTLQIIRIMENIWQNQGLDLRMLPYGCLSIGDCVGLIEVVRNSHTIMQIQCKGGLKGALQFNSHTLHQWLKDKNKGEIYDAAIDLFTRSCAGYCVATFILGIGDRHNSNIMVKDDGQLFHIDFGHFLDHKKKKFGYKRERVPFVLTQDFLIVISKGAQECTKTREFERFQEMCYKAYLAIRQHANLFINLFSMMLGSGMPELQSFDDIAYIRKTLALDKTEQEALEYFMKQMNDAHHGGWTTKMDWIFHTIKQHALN
Chain of PI3K α (P27986 whole entry partner): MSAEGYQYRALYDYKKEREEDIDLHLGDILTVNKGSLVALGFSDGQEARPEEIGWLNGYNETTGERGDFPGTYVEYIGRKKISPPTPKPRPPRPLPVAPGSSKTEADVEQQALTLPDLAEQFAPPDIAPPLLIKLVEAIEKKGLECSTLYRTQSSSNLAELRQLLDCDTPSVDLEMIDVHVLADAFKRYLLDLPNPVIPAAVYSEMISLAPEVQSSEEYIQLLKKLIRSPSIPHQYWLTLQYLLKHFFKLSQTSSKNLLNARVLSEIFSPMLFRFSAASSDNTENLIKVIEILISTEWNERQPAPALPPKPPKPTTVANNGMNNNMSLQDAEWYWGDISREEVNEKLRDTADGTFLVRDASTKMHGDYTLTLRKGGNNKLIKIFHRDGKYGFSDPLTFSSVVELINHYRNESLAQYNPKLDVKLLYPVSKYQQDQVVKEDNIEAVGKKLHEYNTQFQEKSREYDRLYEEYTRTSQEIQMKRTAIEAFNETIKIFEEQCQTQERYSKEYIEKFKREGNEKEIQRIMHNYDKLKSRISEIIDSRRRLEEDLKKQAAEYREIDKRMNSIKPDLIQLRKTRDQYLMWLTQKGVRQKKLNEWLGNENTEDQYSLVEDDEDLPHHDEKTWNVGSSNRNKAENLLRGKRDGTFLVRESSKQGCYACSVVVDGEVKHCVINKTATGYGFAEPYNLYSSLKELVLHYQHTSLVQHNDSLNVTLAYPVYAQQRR
Protocol: (§1) IC50 values are measured using either a standard TLC assay for lipid kinase activity (described below) or a high-throughput membrane capture assay. Kinase reactions are performed by preparing a reaction mixture containing kinase, inhibitor (2% DMSO final concentration), buffer (25 mM HEPES, pH 7.4, 10 mM MgCl2), and freshly sonicated phosphatidylinositol (100 μg/ml). Reactions are initiated by the addition of ATP containing 10 μCi of γ-32P-ATP to a final concentration 10 or 100 μM and allowed to proceed for 5 minutes at room temperature. For TLC analysis, reactions are then terminated by the addition of 105 μl 1N HCl followed by 160 μl CHCl3:MeOH (1:1). The biphasic mixture is vortexed, briefly centrifuged, and the organic phase is transferred to a new tube using a gel loading pipette tip precoated with CHCl3. […] The TLC plates are then dried, exposed to a phosphorimager screen (Storm, Amersham), and quantitated.
(§2) Briefly, the assay is a time resolved FRET assay that indirectly measures PIP3 product formed by the activity of a PI3-K. The kinase reaction is performed in a microtitre plate (e.g., a 384 well microtitre plate). The total reaction volume is approximately 20 ul per well. In the first step, each well receives 2 ul of test compound in 20% dimethylsulphoxide resulting in a 2% DMSO final concentration. Next, approximately 14.5 ul of a kinase/PIP2 mixture (diluted in 1× reaction buffer) is added per well for a final concentration of 0.25-0.3 ug/ml kinase and 10 uM PIP2. The plate is sealed and incubated for 15 minutes at room temperature. To start the reaction, 3.5 ul of ATP (diluted in 1× reaction buffer) is added per well for a final concentration of 10 uM ATP. The plate is sealed and incubated for 1 hour at room temperature. The reaction is stopped by adding 5 ul of Stop Solution per well and then 5 ul of Detection Mix is added per well. The plate is sealed, incubated for 1 hour at room temperature, and then read on an appropriate plate reader. Data is analyzed and IC50s are generated using GraphPad Prism 5.

PI3K β = PI3K β (Homo sapiens (Human), UniProt P42338); experiment: PI3K β inhibition assay; assay type: biochemical
Chain of PI3K β (P42338 whole entry): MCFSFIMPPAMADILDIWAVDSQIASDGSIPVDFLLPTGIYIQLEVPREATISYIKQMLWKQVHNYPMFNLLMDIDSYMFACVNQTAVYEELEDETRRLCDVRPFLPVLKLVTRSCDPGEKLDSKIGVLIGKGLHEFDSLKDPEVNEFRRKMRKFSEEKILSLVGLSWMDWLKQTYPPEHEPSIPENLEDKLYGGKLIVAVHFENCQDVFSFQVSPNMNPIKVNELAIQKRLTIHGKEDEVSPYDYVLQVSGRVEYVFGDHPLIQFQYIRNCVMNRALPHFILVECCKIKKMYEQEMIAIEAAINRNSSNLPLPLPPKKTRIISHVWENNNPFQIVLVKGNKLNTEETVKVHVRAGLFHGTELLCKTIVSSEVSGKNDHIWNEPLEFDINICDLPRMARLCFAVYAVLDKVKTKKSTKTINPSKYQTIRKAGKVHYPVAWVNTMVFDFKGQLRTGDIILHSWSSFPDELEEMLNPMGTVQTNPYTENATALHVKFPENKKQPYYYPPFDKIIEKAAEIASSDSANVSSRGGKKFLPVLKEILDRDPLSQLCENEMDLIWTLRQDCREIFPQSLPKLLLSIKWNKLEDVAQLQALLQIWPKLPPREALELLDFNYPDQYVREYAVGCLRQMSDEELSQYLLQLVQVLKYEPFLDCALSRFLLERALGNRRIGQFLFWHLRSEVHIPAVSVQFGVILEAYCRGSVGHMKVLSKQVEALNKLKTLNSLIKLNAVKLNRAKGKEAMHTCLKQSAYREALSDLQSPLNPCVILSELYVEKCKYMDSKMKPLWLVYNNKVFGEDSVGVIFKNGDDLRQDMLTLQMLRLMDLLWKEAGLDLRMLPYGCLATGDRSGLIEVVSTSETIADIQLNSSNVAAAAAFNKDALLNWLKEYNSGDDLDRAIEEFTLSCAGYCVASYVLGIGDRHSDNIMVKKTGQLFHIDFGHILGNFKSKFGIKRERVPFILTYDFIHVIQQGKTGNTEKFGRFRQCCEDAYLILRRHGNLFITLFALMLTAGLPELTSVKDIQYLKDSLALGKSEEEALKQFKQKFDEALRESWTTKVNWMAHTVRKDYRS
Chain of PI3K β (P27986 whole entry partner): as the sequence (P27986 whole entry partner) above
Protocol: as §1, §2

PI3K γ = PI3K γ (Homo sapiens (Human), UniProt P48736); experiment: PI3K γ inhibition assay; assay type: biochemical; settings: Table 1; read-out: PI3K γ IC50
Chain of PI3K γ (P48736 whole entry): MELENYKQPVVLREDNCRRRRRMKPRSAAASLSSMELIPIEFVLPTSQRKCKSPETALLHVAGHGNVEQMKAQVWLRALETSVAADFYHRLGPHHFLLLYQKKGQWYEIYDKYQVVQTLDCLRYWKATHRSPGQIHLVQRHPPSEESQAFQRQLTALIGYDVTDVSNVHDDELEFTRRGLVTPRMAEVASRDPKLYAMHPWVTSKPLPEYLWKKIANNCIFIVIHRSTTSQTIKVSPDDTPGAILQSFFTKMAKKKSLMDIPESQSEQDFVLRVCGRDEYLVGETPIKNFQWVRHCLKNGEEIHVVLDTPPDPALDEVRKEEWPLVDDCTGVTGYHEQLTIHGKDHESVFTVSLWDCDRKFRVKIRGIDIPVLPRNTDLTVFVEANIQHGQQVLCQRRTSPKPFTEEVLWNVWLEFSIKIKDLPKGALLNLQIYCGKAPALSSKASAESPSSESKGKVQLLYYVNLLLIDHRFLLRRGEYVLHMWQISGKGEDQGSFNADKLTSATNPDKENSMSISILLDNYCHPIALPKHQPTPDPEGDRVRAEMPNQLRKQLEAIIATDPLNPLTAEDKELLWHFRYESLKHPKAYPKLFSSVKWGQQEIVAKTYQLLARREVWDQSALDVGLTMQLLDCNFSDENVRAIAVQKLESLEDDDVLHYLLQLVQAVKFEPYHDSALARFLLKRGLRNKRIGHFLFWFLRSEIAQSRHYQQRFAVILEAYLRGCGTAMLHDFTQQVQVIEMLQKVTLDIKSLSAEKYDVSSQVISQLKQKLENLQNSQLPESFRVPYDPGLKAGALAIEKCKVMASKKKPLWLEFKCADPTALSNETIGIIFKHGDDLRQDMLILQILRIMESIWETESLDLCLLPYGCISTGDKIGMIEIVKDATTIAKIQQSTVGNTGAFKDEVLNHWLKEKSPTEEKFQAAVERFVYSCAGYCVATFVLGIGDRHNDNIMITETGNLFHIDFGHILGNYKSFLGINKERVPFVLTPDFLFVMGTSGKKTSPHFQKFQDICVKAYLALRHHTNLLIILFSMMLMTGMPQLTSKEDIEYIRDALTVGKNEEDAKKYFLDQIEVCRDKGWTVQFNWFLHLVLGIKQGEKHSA
Protocol: as §1, §2

PI3K δ = PI3K δ (Homo sapiens (Human), UniProt O00329); experiment: PI3K δ inhibition assay; assay type: biochemical; settings: Table 1; read-out: PI3K δ IC50
Chain of PI3K δ (O00329 whole entry): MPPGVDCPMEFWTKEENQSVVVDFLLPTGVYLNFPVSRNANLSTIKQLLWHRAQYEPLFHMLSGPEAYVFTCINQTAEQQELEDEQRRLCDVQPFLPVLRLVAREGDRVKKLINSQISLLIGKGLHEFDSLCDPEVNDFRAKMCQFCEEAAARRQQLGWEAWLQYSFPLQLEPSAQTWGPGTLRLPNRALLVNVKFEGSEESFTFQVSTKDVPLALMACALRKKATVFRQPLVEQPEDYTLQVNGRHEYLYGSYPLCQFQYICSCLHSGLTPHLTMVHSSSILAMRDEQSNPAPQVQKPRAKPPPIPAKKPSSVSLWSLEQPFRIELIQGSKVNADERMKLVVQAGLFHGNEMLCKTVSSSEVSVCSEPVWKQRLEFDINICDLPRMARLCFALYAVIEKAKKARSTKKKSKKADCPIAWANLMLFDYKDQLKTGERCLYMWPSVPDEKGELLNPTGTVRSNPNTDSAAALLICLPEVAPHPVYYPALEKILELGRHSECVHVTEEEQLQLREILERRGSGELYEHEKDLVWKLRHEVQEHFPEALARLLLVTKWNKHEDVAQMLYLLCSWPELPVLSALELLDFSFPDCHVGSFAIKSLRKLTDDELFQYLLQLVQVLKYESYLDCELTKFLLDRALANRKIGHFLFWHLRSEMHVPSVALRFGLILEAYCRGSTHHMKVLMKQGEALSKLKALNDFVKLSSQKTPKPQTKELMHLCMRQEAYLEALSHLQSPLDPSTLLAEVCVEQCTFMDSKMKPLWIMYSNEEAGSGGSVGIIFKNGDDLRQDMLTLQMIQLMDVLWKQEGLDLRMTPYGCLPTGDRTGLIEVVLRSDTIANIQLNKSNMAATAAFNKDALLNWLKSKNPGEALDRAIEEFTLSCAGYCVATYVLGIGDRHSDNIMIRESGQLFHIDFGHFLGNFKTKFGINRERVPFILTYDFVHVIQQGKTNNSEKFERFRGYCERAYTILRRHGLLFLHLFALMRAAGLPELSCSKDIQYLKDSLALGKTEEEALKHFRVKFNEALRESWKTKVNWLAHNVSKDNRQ
Chain of PI3K δ (P27986 whole entry partner): as the sequence (P27986 whole entry partner) above
Protocol: as §1, §2

[1] = control compounds, 5 μM; cited from earlier work

SMILES	IC50 (mTORC) [nM]	IC50 (PI3K α) [nM]	IC50 (PI3K β; Table 1, read-out: PI3K β IC50) [nM]	IC50 (PI3K γ) [nM]	IC50 (PI3K δ) [nM]	plasma stability [1]	IC50 (PI3K β) [nM]
COc1cccc2cc(-c3nn(C4CCOCC4)c4ncnc(N)c34)[nH]c12 [Compound 63]	< 5	< 500	> 500	< 25	< 25	–	–
Nc1ncnc2c1c(-c1cc3cccc(O)c3[nH]1)nn2C1CCOCC1 [Compound 62]	< 5	> 500	> 500	> 500	< 100	–	–
CC(=O)N1CCC(n2nc(-c3cc4cc(O)ccc4[nH]3)c3c(N)ncnc32)CC1 [Compound 30]	< 25	> 500	> 500	–	> 500	–	–
Nc1ncnc2c1c(-c1cc3cc(O)ccc3[nH]1)nn2C1CCC1 [Compound 27]	< 25	–	–	–	–	–	–
COc1ccc(Cl)c2cc(-c3nn(C4CCOCC4)c4ncnc(N)c34)[nH]c12 [Compound 61]	< 25	> 500	> 500	> 500	> 500	–	–
COc1cc2cc(-c3nn(C(C)C)c4ncnc(N)c34)[nH]c2cc1Cl [Compound 29]	> 500	–	–	–	–	–	–
CC(C)N1CCC(n2nc(-c3cc4cccc(O)c4[nH]3)c3c(N)ncnc32)CC1 [Compound 64]	< 25	> 500	> 500	< 500	< 500	–	–
CC(C)n1nc(-c2cc3c(Cl)ccc(O)c3[nH]2)c2c(N)ncnc21 [Compound 39]	< 10	> 500	–	> 500	> 500	–	–
COc1cccc2cc(-c3nn(C4CCN(C(=O)C5CC5)CC4)c4ncnc(N)c34)[nH]c12 [Compound 66]	> 500	> 500	> 500	> 500	> 500	–	–
CCOC(=O)Cn1nc(-c2cc3cc(O)ccc3[nH]2)c2c(N)ncnc21 [Compound 28]	< 500	> 500	> 500	–	> 500	–	–
Cc1nccn1CCn1nc(-c2cc3cc(O)ccc3[nH]2)c2c(N)ncnc21 [Compound 44]	< 100	> 500	> 500	–	> 500	–	–
Nc1ncnc2c1c(-c1cc3cc(O)ccc3[nH]1)nn2C1CCOCC1 [Compound 42]	< 5	> 500	> 500	–	< 100	–	–
Nc1ncnc2c1c(-c1cc3cc(O)ccc3[nH]1)nn2C1CCCCC1 [Compound 26]	< 10	> 500	> 500	< 500	< 100	–	–
Nc1ncnc2c1c(-c1cc3cccc(O)c3[nH]1)nn2C1CCN(C(=O)C2CC2)CC1 [Compound 41]	< 10	> 500	> 500	< 50	> 500	–	–
CC(C)N1CCC(n2nc(-c3cc4c(Cl)ccc(O)c4[nH]3)c3c(N)ncnc32)CC1 [Compound 71]	< 100	> 500	> 500	> 500	> 500	–	–
COc1ccc2cc(-c3nn(C4CCOCC4)c4ncnc(N)c34)[nH]c2c1 [Compound 59]	> 500	> 500	> 500	> 500	–	–	–
Nc1ncnc2c1c(-c1cc3ccc(O)cc3[nH]1)nn2C1CCOCC1 [Compound 60]	< 100	> 500	> 500	< 100	–	–	–
CN1CCN(C2CCC(n3nc(-c4cc5cc(O)ccc5[nH]4)c4c(N)ncnc43)CC2)CC1 (stereo not drawn) [Compound 58]	> 500	> 500	> 500	> 500	–	–	–
CC(C)N1CCC(n2nc(-c3cc4cc(O)cc(Cl)c4[nH]3)c3c(N)ncnc32)CC1 [Compound 56]	> 500	> 500	> 500	> 500	–	–	–
Nc1ncnc2c1c(-c1cc3cc(O)ccc3[nH]1)nn2C1CC(N2CCOCC2)C1 (stereo not drawn) [Compound 49]	< 10	> 500	> 500	< 500	< 500	–	–
Nc1ncnc2c1c(-c1cc3cc(O)cc(Cl)c3[nH]1)nn2C1CCOCC1 [Compound 68]	< 5	< 500	> 500	< 50	< 25	–	–
CCCOc1cc(N)ccc1C(=O)OCCN(CC)CC [propoxycaine]	–	–	–	–	–	low plasma stability	–
Nc1ncnc2c1c(-c1cc3cc(O)ccc3[nH]1)nn2Cc1cccnc1 [Compound 38]	< 500	> 500	–	> 500	> 500	–	–
CC(C)n1nc(-c2cc3cc(O)ccc3[nH]2)c2c(N)nccc21 [Compound 45]	> 500	–	–	–	–	–	–
COc1cc(Cl)c2[nH]c(-c3nn(C4CCOCC4)c4ncnc(N)c34)cc2c1 [Compound 67]	> 500	> 500	> 500	> 500	> 500	–	–

SMILES	IC50 (mTORC) [nM]	IC50 (PI3K α) [nM]	IC50 (PI3K β; Table 1, read-out: PI3K β IC50) [nM]	IC50 (PI3K γ) [nM]	IC50 (PI3K δ) [nM]	plasma stability [1]	IC50 (PI3K β) [nM]
Nc1ncnc2c1c(-c1cc3c(Cl)cccc3[nH]1)nn2C1CCOCC1 [Compound 48]	< 50	> 500	> 500	> 500	> 500	–	–
CC(C)n1nc(-c2cc3cc(O)c(Cl)cc3[nH]2)c2c(N)ncnc21 [Compound 32]	< 500	> 500	–	> 500	> 500	–	–
CC(C)n1nc(-c2cc3cccc(Cl)c3[nH]2)c2c(N)ncnc21 [Compound 50]	< 50	> 500	> 500	< 500	< 500	–	–
CC(C)n1nc(-c2cc3c(O)cccc3[nH]2)c2c(N)ncnc21 [Compound 37]	> 500	< 500	–	< 500	< 500	–	–
Nc1ncnc2c1c(-c1cc3cccc(O)c3[nH]1)nn2C1CCCC1 [Compound 36]	< 10	> 500	–	< 100	< 500	–	–
CC(C)N1CCC(n2nc(-c3cc4cc(O)ccc4[nH]3)c3c(N)ncnc32)CC1 [Compound 55]	< 500	> 500	> 500	> 500	–	–	–
Nc1ncnc2c1c(-c1cc3cccc(Cl)c3[nH]1)nn2C1CCOCC1 [Compound 51]	< 50	> 500	> 500	< 500	< 500	–	–
CN1CCN(C2CC(n3nc(-c4cc5cc(O)ccc5[nH]4)c4c(N)ncnc43)C2)CC1 (stereo not drawn) [Compound 52]	< 500	> 500	> 500	> 500	< 500	–	–
CC(C)[N+](C)(CCOC(=O)C1c2ccccc2Oc2ccccc21)C(C)C [propantheline]	–	–	–	–	–	intermediate plasma stability	–
CC(=O)N1CCC(n2nc(-c3cc4c(Cl)ccc(O)c4[nH]3)c3c(N)ncnc32)CC1 [Compound 69]	< 5	> 500	> 500	> 500	< 500	–	–
Nc1ncnc2c1c(-c1cc3cc(O)ccc3[nH]1)nn2C1CC(=O)C1 [Compound 53]	< 100	> 500	> 500	> 500	–	–	–
CNC(=O)Cn1nc(-c2cc3cc(O)ccc3[nH]2)c2c(N)ncnc21 [Compound 35]	> 500	> 500	–	> 500	> 500	–	–
CC(C)n1nc(-c2cc3ccc(C#N)cc3[nH]2)c2c(N)ncnc21 [Compound 24]	> 500	> 500	–	–	–	–	–
Nc1ncnc2c1c(-c1cc3cc(O)ccc3[nH]1)nn2C1CCC(N2CCOCC2)CC1 (stereo not drawn) [Compound 57]	< 25	> 500	> 500	> 500	–	–	–
COCCn1nc(-c2cc3cc(O)ccc3[nH]2)c2c(N)ncnc21 [Compound 40]	< 100	> 500	–	> 500	> 500	–	–
Nc1ncnc2c1c(-c1cc3cc(O)ccc3[nH]1)nn2C1CC(O)C1 (stereo not drawn) [Compound 54]	< 25	> 500	> 500	> 500	–	–	–
Nc1ncnc2c1c(-c1cc3cc(O)ccc3[nH]1)nn2CC(=O)N1CCOCC1 [Compound 34]	> 500	> 500	–	> 500	> 500	–	–
Nc1ncnc2c1c(-c1cc3cc(O)ccc3[nH]1)nn2C1CCN(C(=O)C2CC2)CC1 [Compound 31]	< 25	> 500	> 500	–	< 500	–	–
Nc1ncnc2c1c(-c1cc3cc(O)ccc3[nH]1)nn2CCN1CCOCC1 [Compound 33]	< 500	> 500	–	> 500	> 500	–	–
CC(=O)N1CCC(n2nc(-c3cc4ccc(O)cc4[nH]3)c3c(N)ncnc32)CC1 [Compound 65]	< 10	< 50	> 500	< 25	< 25	–	–
CNC(=O)Nc1nc2ccc(-c3cn(C(C)C)c4ncnc(N)c34)cc2s1 [Compound 22]	–	–	–	–	–	–	≤ 50
CC(C)n1nc(-c2cc3ccc(C(N)=O)cc3[nH]2)c2c(N)ncnc21 [Compound 25]	< 500	> 500	–	–	–	–	–
CC(=O)N1CCC(n2nc(-c3cc4cc(O)cc(Cl)c4[nH]3)c3c(N)ncnc32)CC1 [Compound 70]	< 5	< 500	> 500	< 100	< 25	–	–
CNC(=O)CCn1nc(-c2cc3cc(O)ccc3[nH]2)c2c(N)ncnc21 [Compound 43]	> 500	> 500	> 500	–	> 500	–	–
